Test results published in patent US20160287621A1, “BIOLOGICAL PRODUCTION OF NAD PRECURSORS AND ANALOGS” (PRESIDENT AND FELLOWS OF HARVARD COLLEGE, priority 2013, published 2016).

How the values were obtained:
[1] = system: Human dermal fibroblasts (HDFa); assay: NAD+ levels in human dermal fibroblasts treated for 24 hrs; format: cell-based
Method: A and B) Human dermal fibroblasts (HDFa) were treated with various concentration of NMN extract or pure NMN from Sigma (St. Louis, Mo.) respectively for 24 hrs and NAD+ levels were determined.
A) and B) Human dermal fibroblasts (HDFa) were treated with 50 μM of pure NMN and different concentration of Folate or S-adenosyl-L-methionine (SAM) respectively for 24 hrs and NAD^+ levels were determined.
The effect of pure NMN and partially purified NMN extract on the NAD^+ level in cells was investigated. Briefly, human dermal fibroblasts (HDFa) were treated with varying concentrations of NMN extract or pure NMN for 24 hours and NAD^+ levels were determined. Pure NMN was obtained from Sigma. Partially purified NMN extract was obtained using the methods described above.

[2] = cigarette smokers, small clinical trial; cited from earlier work

Structure (SMILES): NC(=O)c1ccc[n+]([C@@H]2O[C@H](COP(=O)([O-])O)[C@@H](O)[C@H]2O)c1 [Pure NMN, nicotinamide mononucleotide]
- NAD+ levels in cells ([1]; varying concentrations, 24 hours): increased levels of NAD^+

Structure (SMILES): Cc1nc(-c2cccnc2)sc1C(=O)Nc1ccccc1-c1cn2c(CN3CCOCC3)csc2n1 [SRT2104]
- serum lipid profile (total cholesterol, LDL and triglycerides) [2]: improved the serum lipid profile

Structure (SMILES): C[S+](CC[C@H](N)C(=O)O)C[C@H]1O[C@@H](n2cnc3c(N)ncnc32)[C@H](O)[C@@H]1O (stereo partly drawn) [SAM, S-adenosyl-L-methionine]
- effect for raising NAD+ levels in combination with NMN ([1]; 50 μM pure NMN plus different concentrations of Folate or SAM, 24 hrs): synergistic effect
